Assay results reported in patent US5254574A, “New tetrazole derivatives, process for their preparation and their use” (Chemisch Pharmazeutische Forschungsgesellschaft m.b.H., priority 1991, dated 1993).
“Also recorded” adds a separate entry of the source.

Key:
[1] = cited from earlier work
[2] = target: T1, Angiotensin II receptor (isolated rat aorta) (Rattus norvegicus, UniProt P25095); test: Isolated rat aorta, contractile force; cumulative angiotensin II dose-response curves with and without antagonist pretreatment; settings: dose/effect curve of angiotensin II; FIG. 1, FIG. 2
T1 construct: isolated rat aorta; from tissue; host or cells: isolated rat aorta
T1 sequence (P25095 1-359): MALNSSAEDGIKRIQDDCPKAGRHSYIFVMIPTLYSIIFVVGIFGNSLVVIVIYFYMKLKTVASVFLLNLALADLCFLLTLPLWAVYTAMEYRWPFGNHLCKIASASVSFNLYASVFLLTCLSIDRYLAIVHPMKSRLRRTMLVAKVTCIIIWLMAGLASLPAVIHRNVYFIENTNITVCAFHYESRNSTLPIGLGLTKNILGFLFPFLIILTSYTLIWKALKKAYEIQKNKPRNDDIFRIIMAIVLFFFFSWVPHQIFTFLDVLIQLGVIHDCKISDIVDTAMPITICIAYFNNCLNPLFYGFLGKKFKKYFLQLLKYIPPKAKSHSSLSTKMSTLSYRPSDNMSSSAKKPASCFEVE
Protocol: 1 or DuP 753 (10-8, 10^-7, 10^-6 mol/1, each) and results were expressed as percentage of maximum contraction obtained by addition of 10^-5 mol/1 noradrenaline.
EP50 -values and pA2 -values were determined arithmetically.
FIG. 1 Isolated rat aorta contractile force of subst. 1
FIG. 2 Isolated rat aorta contractile force of DuP 753

[3] = tested on: angiotensin II induced increases in mean arterial blood pressure; test: Anaesthetized normotensive rat: angiotensin II induced increases in mean arterial blood pressure after intraduodenal administration; settings: FIG. 3
Protocol: b) anaesthetized normotensive rat: Angiotension II (1 /ug/kg i.v.) was given before as well as in 15 minutes intervals after intraduodenal administration of the drugs.
FIG. 3 The effects of DuP 753 and Subst. 1 on angiotension II induced increases in mean arterial bloodpessure in normotensive anaesthetized rats (n=4)

angiotensin II receptor = settings: Wong et al., 1990, JPET 255, 211-217; cited from earlier work

| SMILES | metabolic conversion in vivo ([1]; literature) | mode of antagonism in vitro [2] | duration of action in vivo ([3]; DuP 753 compared with the substances according to the invention) | conversion into active non-competitive metabolite in vivo ([3]; concluded from duration of action) | mode of angiotensin II receptor antagonism (angiotensin II receptor) | contribution of metabolite to duration of action of DuP 753 ([1]; in vivo, Wong et al., 1990) |
| --- | --- | --- | --- | --- | --- | --- |
| CCCCc1nc(Cl)c(CO)n1Cc1ccc(-c2ccccc2-c2nn[nH]n2)cc1 [DuP 753, 2-n-butyl-4-chloro-5-hydroxymethyl-1-((2'-(1-H-tetrazol-5-yl)biphenyl-4-yl)methyl)imidazole] | converted into a non-competitive metabolite, EXP 3174 | acts competitively in experiments in vitro | longer duration of action | conversion into an active non-competitive metabolite is detectable |  |  |
| CCCCc1nc(Cl)c(C(=O)O)n1Cc1ccc(-c2ccccc2-c2nnn[nH]2)cc1 [EXP 3174, 2-n-butyl-4-chloro-1-((2'-(1H-tetrazol-5-yl)biphenyl-4-yl)methyl)-imidazole-5-carboxylic acid] |  |  |  |  | non-competitive irreversible angiotensin II receptor antagonist | responsible for the long duration of action; also recorded: largely responsible for the duration of action of DuP 753 |
